The conditions of series [1]: cited from earlier work.
The next series deals with dopamine D2 receptor (Homo sapiens, UniProt P14416). Description: dopamine D2 receptor binding, metoclopramide alone and with dexamethasone added. On the procedure:
Metoclopramide is an inhibitor of the dopamine D2 receptor which negatively effects motor function through D2 blockade causing extrapyramidal signs and symptoms (EPS). The effect of the addition of a steroid, such as dexamethasone, on metoclopramide's binding affinity at the dopamine D2 receptor is studied. […] Dexamethasone is then added in relative concentrations based on weight to achieve the following results: […]

Another series concerns male Spargue-Dawley rats. As to the kind of experiment: locomotor depressant effect in rats (center distance traveled, Digiscan activity monitors). The series is classed as in vivo, rat. The settings on record: metaclopramide 4 mg/kg s.c., rats pretreated with saline, 30 minutes recording. As for the experimental part: In this example, the effect of the addition of a steroid, such as dexamethasone, on metoclopramide's locomotor depressant effects is studied. Forty-eight male Spargue-Dawley rats (250-350 g) are used for this experiment. The rats are housed in pairs and allowed free access to food and water and are not handled except for cage changes and weighing prior to testing. All experimental procedures are performed during the rat's nocturnal cycle, in dimly lit behavior rooms, except that the rats are moved to adjacent behavior rooms 30 minutes prior to testing. Eight rats are tested at a time, four rats from each condition are tested together and groups are randomly chosen to control for order sequence effects. The locomotor experiments are carried out in clear, acrylic 41×41×30 cm test chambers inside Ominitech Digiscan activity monitors (Accuscan, Inc.). Each monitor uses two arrays of infrared photocell beams (8×8 photocells, model RXYZCM-8) to detect several parameters of the rat's movement both horizontally and vertically. Data is collected in 5-min bins during testing. Dexamethasone (Sigma) is dissolved in deionized water at concentrations of 0.16, 0.4, 0.8, and 4 mg/ml. […] Each rat is then immediately placed into a locomotor testing box and the data is recorded for 30 minutes (5-min bins). The data is analyzed with a one way ANOVA for the dependent variable, center distance traveled. […]

The subject of a further series is nausea and emesis. The settings on record: cited from earlier work.

Structures are written as SMILES. Like-named read-outs stand apart in the source and are kept apart here.

Chain of dopamine D2 receptor (P14416 whole entry, species assumed): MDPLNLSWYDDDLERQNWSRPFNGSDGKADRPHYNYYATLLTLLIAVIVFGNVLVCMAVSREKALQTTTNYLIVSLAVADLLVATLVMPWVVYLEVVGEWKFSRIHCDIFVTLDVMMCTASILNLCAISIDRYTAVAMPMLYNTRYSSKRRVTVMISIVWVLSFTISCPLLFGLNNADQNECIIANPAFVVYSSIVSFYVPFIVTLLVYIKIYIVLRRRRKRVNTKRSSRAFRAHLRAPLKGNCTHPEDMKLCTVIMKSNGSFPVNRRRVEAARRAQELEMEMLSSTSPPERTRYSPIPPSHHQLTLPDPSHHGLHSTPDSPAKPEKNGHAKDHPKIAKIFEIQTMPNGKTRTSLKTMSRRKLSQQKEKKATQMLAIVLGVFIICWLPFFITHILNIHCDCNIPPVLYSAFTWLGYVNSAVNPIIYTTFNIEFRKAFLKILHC

With `CCN(CC)CCNC(=O)c1cc(Cl)c(N)cc1OC` [metoclopramide], the “solubility in aqueous solution” value in series [1] (acid addition salt form) is listed as “freely soluble in aqueous solution”. The solubility in water result in series [1] (free base form) is on record as “quite water insoluble”. For the same compound, the “% Inhibition D2 Binding” value on dopamine D2 receptor (MTC 8.6 nM, alone or with DEX (0.7-17.2 nM) added at the stated DEX:MTC weight ratio) is on record as 50%. The IC50 at dopamine D2 receptor (metoclopramide alone, read-out: IC50 (the concentration that inhibits 50% of dopamine D2 binding)) came to 8.6 nM. Besides, in the series on male Spargue-Dawley rats, the “center distance traveled (locomotor depressant effect)” value was “significantly reduces”.
With `CN1C2CCCC1CC(NC(=O)c1nn(C)c3ccccc13)C2` (stereo not shown) [oral granisetron, granisetron], the anti-emetic efficacy result in the series with nausea and emesis (Heron et al. 1994, Chevallier 1993, cisplatin-induced emesis) is reported as “superior to MTC”.
Turning to `Cc1nccn1CC1CCc2c(c3ccccc3n2C)C1=O` (stereo not shown) [ondansetron], the anti-emetic efficacy entry in the series on nausea and emesis (Soukop et al. 1992, repeated chemotherapy for breast cancer) was “significantly superior than MTC”.
